The pIC50 is the IC50 on a negative log10 scale, so that one unit is a factor of ten. The term microsomal CLint denotes a measure of how fast metabolising enzymes remove a compound, apart from limits set by blood flow. Read a high microsomal CLint as rapid turnover.

From EP4725941A1, “ARYLAMIDE DERIVATIVE HAVING ANTITUMOR ACTIVITY” (priority 2020, dated 2021) come the findings set out here.

The target of series [1] is T1, MEK1 (Homo sapiens, UniProt Q02750).
T1 construct: purchased Thermo Fisher Scientific Inc. (MEK1, CRAF); Carna Biosciences, Inc. (ERK2)
In words: MEK1-inhibiting activity, fluorescent polarization method (CRAF/MEK1/ERK2 cascade, IMAP). It is filed as biochemical.

Another series concerns HCT-116. In words: HCT-116 growth-inhibiting activity. Format: cell-based. The settings on record: Table 1, human cancer cells with RAS mutation.
A further series deals with Colo-205. In words: Colo-205 growth-inhibiting activity. It is filed as cell-based. The conditions noted are these: Table 1, human cancer cells with BRAF mutation.
In another series the target is T2, BRAF (Homo sapiens, UniProt P15056).
T2 construct: purchased Eurofins Genomics KK; (BRAF); Thermo Fisher Scientific Inc. (MEK1)
In words: BRAF-inhibiting activity, time-resolved fluorescence-fluorescence resonance energy transfer assay. It is filed as biochemical. The method, then:
The BRAF-inhibiting activity of the compounds listed in Table 3 below was evaluated by the time-resolved fluorescence-fluorescence resonance energy transfer assay as described below.

The nature of series [2]: Human liver microsome stability. Format: in vitro ADME. The settings on record: human liver microsomes, pH 7.4. In general terms: Liver microsomes are a subcellular fraction often used to study metabolism.
For another series, the system named is NCI-H2122. In words: Cell proliferation-inhibiting activity (ATP in viable cells, CellTiter-Glo), NCI-H2122. Format: cell-based, human. The conditions noted are these: NCI-H2122, 96 h; human lung cancer cells, 4 days; read-out: NCI-H2122 IC50.
Another series has as its system A549. In words: Cell proliferation-inhibiting activity (ATP in viable cells, CellTiter-Glo), A549. It is filed as cell-based, human. The settings on record: A549, 96 h; human lung cancer cells, 4 days; read-out: A549 IC50. Background: In ATP-based viability assays light output follows the ATP content of the culture.
Another series concerns Calu-6. In words: Cell proliferation-inhibiting activity (ATP in viable cells, CellTiter-Glo), Calu-6. It is filed as cell-based, human. The conditions noted are these: Calu-6, 96 h; human lung cancer cells, 4 days; read-out: Calu-6 IC50.
Series [3] concerns the target T1, MEK1. In words: MEK1-inhibiting activity, fluorescent polarization method (CRAF/MEK1/ERK2 cascade, IMAP). It is filed as biochemical. The settings on record: Table 3; read-out: MEK1 IC50. As for the experimental part: The MEK1-inhibiting activity of the compounds listed in Table 3 below were evaluated by the fluorescent polarization method as described below.

pIC50: −log10 of the molar value. Where two headings read alike, the source gives them in different places. Bounds are passed on as bounds.

T2 sequence (P15056 417-766 limits assumed): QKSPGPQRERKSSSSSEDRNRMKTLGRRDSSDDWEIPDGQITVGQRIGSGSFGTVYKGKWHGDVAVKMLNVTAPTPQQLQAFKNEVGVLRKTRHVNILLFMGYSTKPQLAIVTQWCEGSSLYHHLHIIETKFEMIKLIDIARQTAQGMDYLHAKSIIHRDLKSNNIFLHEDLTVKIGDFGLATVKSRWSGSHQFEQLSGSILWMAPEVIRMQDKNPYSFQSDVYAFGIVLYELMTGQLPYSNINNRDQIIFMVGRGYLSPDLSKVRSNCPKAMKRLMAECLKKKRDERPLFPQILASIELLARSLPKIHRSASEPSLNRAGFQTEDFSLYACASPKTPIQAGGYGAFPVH
T1 sequence (Q02750 whole entry): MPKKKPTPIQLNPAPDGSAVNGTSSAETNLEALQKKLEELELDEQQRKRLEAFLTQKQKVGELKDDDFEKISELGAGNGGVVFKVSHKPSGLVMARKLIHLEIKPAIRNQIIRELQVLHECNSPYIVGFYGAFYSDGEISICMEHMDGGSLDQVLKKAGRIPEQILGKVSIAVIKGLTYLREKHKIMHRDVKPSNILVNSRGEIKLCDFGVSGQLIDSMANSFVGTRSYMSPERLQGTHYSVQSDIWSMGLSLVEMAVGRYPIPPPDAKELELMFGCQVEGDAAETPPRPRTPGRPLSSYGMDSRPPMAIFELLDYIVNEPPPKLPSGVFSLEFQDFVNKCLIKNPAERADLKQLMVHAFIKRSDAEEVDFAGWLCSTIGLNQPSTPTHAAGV

Regarding `CNS(=O)(=O)NCC(=O)N(Cc1cc(C(=O)NOCCO)c(Nc2ccc(I)cc2F)c(F)c1F)OC` [AA-1, 3,4-Difluoro-2-(2-fluoro-4-iodoanilino)-N-(2-hydroxyethoxy)-5-[[methoxy-[2-(methylsulfamoylamino)acetyl]amino]methyl]benzamide], the pIC50 was 7.68 against MEK1 [1] (Table 1), 8.70 in the series on HCT-116, 9.40 in the series with Colo-205 and 8.52 at BRAF (Table 1; read-out: BRAF IC50).
On to `CNS(=O)(=O)Nc1cccc(Cc2c(CC(=O)NOCCO)c3ccc(Oc4ncccn4)cc3oc2=O)c1F` [AA-2, 2-[3-[[2-Fluoro-3-(methylsulfamoylamino)phenyl]methyl]-2-oxo-7-pyrimidin-2-yloxychromen-4-yl]-N-(2-hydroxyethoxy)acetamide], for which the pIC50 was less than 5.10 at MEK1 [1] (Table 1), 4.35 in the series with HCT-116 and 5.66 on BRAF (Table 1; read-out: BRAF IC50).
For `CNS(C)(=O)=Nc1nccc(Cc2cc(C(N)=O)c(Nc3ccc(I)cc3F)c(F)c2F)c1F` (stereo not drawn) [Compound A-43, 3,4-Difluoro-2-(2-fluoro-4-iodoanilino)-5-[[3-fluoro-2-[[methyl-(methylamino)-oxo-λ6-sulfanylidene]amino]pyridin-4-yl]methyl]benzamide], the microsomal CLint at 0.99 µM in [2] came to 37 µL/min/mg. Also, the pIC50 against MEK1 [1] (Table 3) is 7.39; in the series on NCI-H2122, 7.89; in the series with A549, 8.70; at BRAF (Table 3; read-out: BRAF IC50), 8.00.
Turning to `CNS(=O)(=O)Nc1nccc(Cc2cc(C(N)=O)c(Nc3ccc4sccc4c3F)c(F)c2F)c1F` [Compound H-3, 3,4-difluoro-2-[(4-fluoro-1-benzothiophen-5-yl)amino]-5-[[3-fluoro-2-(methylsulfamoylamino)pyridin-4-yl]methyl]benzamide], in series [2], the microsomal CLint at 0.99 µM is 149 µL/min/mg. Also, the pIC50 on MEK1 [1] (Table 3) was 8.70; on BRAF (Table 3; read-out: BRAF IC50) it was 8.40.
Turning to `Cn1c(Nc2ccc(I)cc2F)c(C(N)=O)cc(Cc2cccc(NS(=O)(=O)NC3CC3)c2F)c1=O` [Compound K-3, 5-[[3-(Cyclopropylsulfamoylamino)-2-fluorophenyl]methyl]-2-(2-fluor o-4-iodoanilino)-1-methyl-6-oxopyridine-3-carboxamide], the pIC50 in the series on Calu-6 was 7.51; in the series with NCI-H2122 it was 8.00; on MEK1 [3] it was 7.08; in the series on A549 it was 8.05; on BRAF (read-out: BRAF IC50; Table 3), 8.30. The same molecule came in with a microsomal CLint at 0.99 µM in series [2] of 247 µL/min/mg.
As for `CNS(=O)(=O)Nc1cccc(Cc2cc(C(=O)NC3CC3)c(Nc3ccc(I)cc3F)n(C)c2=O)c1F` [Compound K-4, N-Cyclopropyl-2-(2-fluoro-4-iodoanilino)-5-[[2-fluoro-3-(methylsulfamoylamino)phenyl]methyl]-1-methyl-6-oxopyridine-3-carboxamide], the pIC50 in the series on Calu-6 was 7.60; with NCI-H2122, 8.30; on MEK1 [3], 6.97; in the series with A549, 8.22; on BRAF (read-out: BRAF IC50; Table 3), 7.96. The microsomal CLint at 0.99 µM in series [2] was 129 µL/min/mg.
On to `Cn1c(Nc2ccc(I)cc2F)c(C(=O)NC2CC2)cc(Cc2cccc(NS(=O)(=O)NC3CC3)c2F)c1=O` [Compound K-5, N-Cyclopropyl-5-[[3-(cyclopropylsulfamoylamino)-2-fluorophenyl]methyl]-2-(2-fluoro-4-iodoanilino)-1-methyl-6-oxopyridine-3-carboxamide], for which the pIC50 with Calu-6 is 6.96; with NCI-H2122 it was 7.64; on MEK1 [3], 6.86; in the series with A549 it was 7.60; on BRAF (read-out: BRAF IC50; Table 3), 8.05. This molecule came in with a microsomal CLint at 0.99 µM in [2] of 245 µL/min/mg.
Take `Cn1c(Nc2ccc(I)cc2F)c(C(N)=O)cc(Cc2cccc(NS(=O)(=O)C3(C)CC3)c2F)c1=O` [Compound K-6, 2-(2-Fluoro-4-iodoanilino)-5-[[2-fluoro-3-[(1-methylcyclopropyl)sulfonylamino]phenyl]methyl]-1-methyl-6-oxopyridine-3-carboxamide]: the pIC50 in the series with Calu-6 was 7.08; in the series with NCI-H2122 it was 7.68; on MEK1 [3], 6.64; with A549, 7.60; at BRAF (read-out: BRAF IC50; Table 3), 7.82. The molecule also showed a microsomal CLint at 0.99 µM in series [2] of 499 µL/min/mg.
On to `CONC(=O)c1cc(Cc2cccc(NS(=O)(=O)C3(C)CC3)c2F)c(=O)n(C)c1Nc1ccc(I)cc1F` [Compound K-7, 2-(2-Fluoro-4-iodoanilino)-5-[[2-fluoro-3-[(1-methylcyclopropyl)sulfonylamino]phenyl]methyl]-N-methoxy-1-methyl-6-oxopyridine-3-carboxamide], for which the pIC50 in the series with Calu-6 is 7.57; in the series on NCI-H2122, 8.15; on MEK1 [3] it was 7.51; in the series on A549, 8.05; on BRAF (read-out: BRAF IC50; Table 3), 7.85. In addition, in series [2], the microsomal CLint at 0.99 µM amounted to 357 µL/min/mg.
As to `CCS(=O)(=O)Nc1cccc(Cc2cc(C(N)=O)c(Nc3ccc(I)cc3F)n(C)c2=O)c1F` [Compound K-10, 5-[[3-(Ethylsulfonylamino)-2-fluorophenyl]methyl]-2-(2-fluoro-4-iodoanilino)-1-methyl-6-oxopyridine-3-carboxamide], the pIC50 in the series on Calu-6 was 7.09; in the series on NCI-H2122 it was 7.80; at MEK1 [3] it was 6.89; in the series with A549, 7.60; at BRAF (read-out: BRAF IC50; Table 3), 8.10. Besides, the microsomal CLint at 0.99 µM in series [2] stood at 69 µL/min/mg.
Consider `Cn1c(Nc2ccc(I)cc2F)c(C(=O)NC2CC2)cc(Cc2cccc(NS(=O)(=O)C3(C)CC3)c2F)c1=O` [Compound K-11, N-Cyclopropyl-2-(2-fluoro-4-iodoanilino)-5-[[2-fluoro-3-[(1-methylcyclopropyl)sulfonylamino]phenyl]methyl]-I-methyl-6-oxopyridine-3-carb oxamide], for which the pIC50 in the series with Calu-6 was 6.64; with NCI-H2122, 7.07; on MEK1 [3] it was 6.56; with A549, 7.03; on BRAF (read-out: BRAF IC50; Table 3) it was 7.82. The microsomal CLint at 0.99 µM in series [2] was 437 µL/min/mg.
In the case of `Cn1c(Nc2ccc(I)cc2F)c(C(=O)NOC(C)(C)C)cc(Cc2cccc(NS(=O)(=O)C3(C)CC3)c2F)c1=O` [Compound K-12, 2-(2-Fluoro-4-iodoanilino)-5-[2-fluoro-3-[(1-methylcyclopropyl)sulfonylamino]phenyl]methyl]-1-methyl-N-[(2-methylpropan-2-yl)oxyl-6-oxo pyridine-3-carboxamide], the pIC50 in the series with Calu-6 is 7.57; with NCI-H2122 it was 8.22; on MEK1 [3], 8.00; in the series with A549 it was 8.15; at BRAF (read-out: BRAF IC50; Table 3), 7.85. In addition, the microsomal CLint at 0.99 µM in series [2] worked out at 546 µL/min/mg.
In the case of `CCNS(=O)(=O)Nc1cccc(Cc2cc(C(=O)NC3CC3)c(Nc3ccc(I)cc3F)n(C)c2=O)c1F` [Compound K-13, N-Cyclopropyl-5-[[3-(ethylsulfamoylamino)-2-fluorophenyl]methyl]-2-(2-fluoro-4-iodoanilino)-1-methyl-6-oxopyridine-3-carboxamide], the pIC50 in the series on Calu-6 was 7.28; in the series on NCI-H2122, 7.89; on MEK1 [3], 6.94; with A549 it was 7.74; on BRAF (read-out: BRAF IC50; Table 3), 8.05. Further, the microsomal CLint at 0.99 µM in series [2] is 321 µL/min/mg.
As for `CNS(=O)(=O)Nc1nccc(Cc2cc(C(N)=O)c(Nc3ccc(I)cc3F)cn2)c1F` [Compound L-1, 5-(2-Fluoro-4-iodoanilino)-2-[[3-fluoro-2-(methylsulfamoylamino)pyridin-4-yl]methyl]pyridine-4-carboxamide], the pIC50 in the series on Calu-6 is 7.39; against MEK1 [1] (Table 3), 8.22; in the series with NCI-H2122 it was 7.77; in the series on A549, 7.68; on BRAF (Table 3; read-out: BRAF IC50), 8.70. Besides, in series [2], the microsomal CLint at 0.99 µM is 10 µL/min/mg.
`CNS(=O)(=O)Nc1nccc(Cc2cc(C(N)=O)c(Nc3ccc(I)cc3F)n3cncc23)c1F` [Compound M-1, 5-(2-Fluoro-4-iodoanilino)-8-[[3-fluoro-2-(methylsulfamoylamino)pyridin-4-yl]methyl]imidazo[1,5-a]pyridine-6-carboxamide]: the pIC50 was 7.55 with Calu-6; 7.89 with NCI-H2122; 8.30 at MEK1 [3]; 7.57 with A549; 8.40 on BRAF (read-out: BRAF IC50; Table 3). The microsomal CLint at 0.99 µM in series [2] came out at 59 µL/min/mg.
Regarding `CNS(=O)(=O)Nc1cccc(Oc2cc(F)cc(Nc3ccc(I)cc3F)c2C(N)=O)c1` [Ref-2, 4-Fluoro-2-(2-fluoro-4-iodoanilino)-6-[3-(methylsulfamoylamino)phenoxy]benzamide, reference compound], the pIC50 with Calu-6 is 7.46; with NCI-H2122, 8.52; on MEK1 [3], 6.44; in the series with A549, 8.10; at BRAF (read-out: BRAF IC50; Table 3), 7.92. The molecule further gave a microsomal CLint at 0.99 µM in series [2] of 12 µL/min/mg.
On to `CC(C)S(=O)(=O)Nc1cccc(Oc2cncc(Nc3ccc(I)cc3F)c2C(N)=O)c1` [Ref-3, 3-(2-Fluoro-4-iodoanilino)-5-[3-(propan-2-ylsulfonylamino)phenoxy]py ridine-4-carboxamide, reference compound], for which the pIC50 in the series on Calu-6 is 8.00; in the series on NCI-H2122, 9.00; on MEK1 [3] it was 8.30; in the series on A549, 8.70; on BRAF (read-out: BRAF IC50; Table 3) it was 7.92. For the same molecule, the microsomal CLint at 0.99 µM in series [2] worked out at 11 µL/min/mg.
